Data on seven compounds can be found in patent publication US11059795B2, “Androgen receptor modulators and methods for their use” (ESSA Pharma, Inc., priority 2018, dated 2021).

Data set [1] can be described thus: Microsomal stability assay, dog liver microsomes. Particulars: pH 7.4, read-out: Liver microsome T½ (min) Dog. In kind it is in vitro ADME. How it is done: (§1) Microsomal stability assay is a widely used in vitro model to characterize the metabolic conversion by phase I enzymes, such as cytochrome P450 (CYP) enzymes. Since metabolism is known to be highly variable in different species, microsomal stability assay is commonly run in multiple species. Metabolic stability of testing compound can be evaluated using human, rat, mouse, or other animal liver or intestine microsomes to predict intrinsic clearance.
(§2) The assay was carried out in 96-well microtiter plates at 37° C. Reaction mixtures (25 μL) contained a final concentration of 1 μM test compound, 0.5 mg/mL liver microsomes protein, and 1 mM NADPH and/or 1 mM UDPGA (with alamethicin) in 100 mM potassium phosphate, pH 7.4 buffer with 3 mM MgCl2. The incubation was done with N=1, but duplicate incubation at each time point can be prepared if necessary. At each of the time points (for example, 0, 15, 30, and 60 minutes), 150 μL of quench solution (100% acetonitrile with 0.1% formic acid) with internal standard was transferred to each well. Besides the zero minute controls, mixtures containing the same components except the NADPH can also be prepared as the negative control. Verapamil was included as a positive control to verify assay performance. Plates were sealed, vortexed, and centrifuged at 4° C. for 15 minutes at 4000 rpm. The supernatant is transferred to fresh plates for LC/MS/MS analysis.
(§3) Summarized conditions: [Compound]=[…], [LM]=0.5 mg/mL, [NADPH]=1 mM and/or [UDPGA]=1 mM, Buffer=100 mM Potassium Phosphate, pH 7.4 with 3 mM MgCl2, Time=0, 15, 30, and 60 min, and Temperature=37° C.
(§4) All samples were analyzed on LC/MS/MS using an AB Sciex API 4000 instrument, coupled to a Shimadzu LC-20AD LC Pump system. Analytical samples were separated using a Waters Atlantis T3 dC18 reverse phase HPLC column (20 mm×2.1 mm) at a flow rate of 0.5 mL/min. The mobile phase consisted of 0.1% formic acid in water (solvent A) and 0.1% formic acid in 100% acetonitrile (solvent B).
(§5) The extent of metabolism is calculated as the disappearance of the test compound, compared to the 0-min time incubation. Initial rates are calculated for the compound concentration and used to determine half-life (t½) values and subsequently, the intrinsic clearance (Clint). Clint=(0.693)(1/t½ (min))(g of liver/kg of body weight)(mL incubation/mg of microsomal protein)(45 mg of microsomal protein/g of liver weight)
(Liver microsomes are a subcellular fraction often used to study metabolism.)

Data set [2] in a line: Hepatocyte stability assay, human hepatocytes. The conditions noted are these: cryopreserved hepatocytes, read-out: Hepatocytes T½ (min) Human. In kind it is in vitro ADME.
Text: The […] of in vitro intrinsic clearance (Clint) for drug candidates in the early discovery stage is common practice in the pharmaceutical industry. The Clint values of drug candidates can help to confirm whether metabolism is the main clearance pathway when it is compared with the total body clearance in vivo. Hepatocytes are among the routinely used in vitro systems for measuring clearance. Hepatocytes have been reported to retain most of the phase I and phase II metabolic activities, and therefore, it is a useful tool to estimate the intrinsic clearance for potential drug candidates.
Metabolic stability of testing compound were be evaluated using human and mouse hepatocytes and can also be use rat, mouse, or other animal hepatocytes to predict intrinsic clearance. Cryopreserved hepatocytes were removed from the liquid nitrogen tank and thawed in a 37° C. water bath. As soon as the cells pulled away from the vial wall, they were decanted into 48 ml of warm HT medium. Cells were centrifuged for four minutes at 420 rpm (50 g). After removing the supernatant, pellet was re-suspended in warm DMEM medium. Cell density was counted by a hemacytometer.
The assay was carried out in 96-well microtiter plates. Compounds were incubated for 0, 60, 120, and 180 minutes at 37° C. with hepatocytes. Reaction mixtures (50 μL) contained a final concentration of 1 μM test compound, 0.5 million cells/mL hepatocytes in the DMEM medium. At each of the time points (for example, 0, 1, 2, and 3 hours), 200 μL of quench solution (100% acetonitrile with 0.1% formic acid) with internal standard was transferred to each well. Midazolam was included as a positive control to verify assay performance. Plates were sealed and centrifuged at 4° C. for 15 minutes at 4000 rpm. The supernatant is transferred to fresh plates for LC/MS/MS analysis.
Summarized conditions (customizable): [Compound]=[…], Positive control: midazolam and/or naloxone, [Hepatocyte]=0.5 million cells/Ml, time=0, 60, 120, and 180 min, t=37° C.
as §4
The extent of metabolism was calculated as the disappearance of the test compound, compared to the 0-min control reaction incubations. Initial rates were calculated for the compound concentration and used to determine t½ values and subsequently, the intrinsic clearance, Clint. Clint=(0.693)(1/t½(min))(mL incubation/million cells)

Data set [3] concerns the target T1, LBD of progesterone receptor-beta (PRβ) fused to DBD of GAL4 (Homo sapiens, UniProt P06401).
T1 sequence (P06401 679-913 limits assumed): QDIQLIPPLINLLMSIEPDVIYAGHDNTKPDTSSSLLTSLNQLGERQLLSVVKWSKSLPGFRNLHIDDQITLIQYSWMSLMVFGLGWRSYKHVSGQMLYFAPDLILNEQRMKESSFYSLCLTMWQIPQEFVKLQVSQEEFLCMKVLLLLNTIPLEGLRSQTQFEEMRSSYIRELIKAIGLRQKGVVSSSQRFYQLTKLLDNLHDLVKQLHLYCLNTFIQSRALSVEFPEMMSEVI
Put plainly: LBD-expressing reporter assay (GeneBLAzer), PR LBD. The conditions noted are these: inhibition of maximal activity attained with agonist; read-out: Steroid Receptor LBD IC50 (μM) PR. It counts as cell-based. The source says: (§6) This assay uses cells that stably express a chimera fusion protein comprising the LBD of a steroid hormone receptor fused to the DNA-binding domain (DBD) of GAL4 along with beta-lactamase reporter under transcriptional control of an upstream activator sequence (UAS). When agonist binds to the LBD of the GAL4 (DBD)-steroid hormone (LBD) chimera fusion protein, the protein binds to the UAS, resulting in expression of beta-lactamase. LBDs of androgen receptor (AR), progesterone receptor-beta (PRβ), glucocorticoid receptor (GR), estrogen receptor-α (ERα), and estrogen receptor-β (ERβ) were tested and IC50s calculated for inhibiting maximal activity attained with agonist.
For orientation: Reporter assays use an easily measured gene product as a stand-in for the process of interest.

Data set [4] can be described thus: Microsomal stability assay, monkey liver microsomes. Particulars: pH 7.4, read-out: Liver microsome T½ (min) Monkey. In kind it is in vitro ADME. How it is done: as §1, §2, §3, §4, §5
Data set [5] has as its target T2, LBD of estrogen receptor-α (ERα) fused to DBD of GAL4 (Homo sapiens, UniProt P03372).
T2 sequence (P03372 311-547 limits assumed): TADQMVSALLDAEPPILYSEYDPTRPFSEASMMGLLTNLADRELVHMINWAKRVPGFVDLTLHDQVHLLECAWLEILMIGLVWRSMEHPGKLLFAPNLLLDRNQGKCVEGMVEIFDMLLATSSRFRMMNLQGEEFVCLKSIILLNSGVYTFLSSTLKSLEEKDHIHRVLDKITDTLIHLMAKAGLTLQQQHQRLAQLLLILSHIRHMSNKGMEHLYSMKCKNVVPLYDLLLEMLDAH
Kind of data set: LBD-expressing reporter assay (GeneBLAzer), ERα LBD. In kind it is cell-based. The conditions noted are these: inhibition of maximal activity attained with agonist; read-out: Steroid Receptor LBD IC50 (μM) ERα.
Text: as §6

In general, IC50 refers to the concentration at which inhibition is half-maximal. With `CC(C)(c1ccc(OCc2ocnc2S(C)(=O)=O)cc1)c1cc(Cl)c(OCCCl)c(Cl)c1` [Compound A13, 5-((4-(2-(3,5-dichloro-4-(2-chloroethoxy)phenyl)propan-2-yl)phenoxy)methyl)-4-(methylsulfonyl)oxazole], the half-life at 1 μM in data set [1] is more than 120 min; in data set [2] it was 290 min; in data set [4], more than 120 min. Further, the results for the IC50 in data set [3] and in data set [5] were 0.97 µM and more than 10 µM, respectively.
As for `CC(C)(c1ccc(OCc2ocnc2S(C)(=O)=O)cc1)c1cc(Cl)c(OCCCl)c(C#N)c1` [Compound A28, 3-chloro-2-(2-chloroethoxy)-5-(2-(4-((4-(methylsulfonyl)oxazol-5-yl)methoxy)phenyl)propan-2-yl)benzonitrile], the values for the half-life at 1 μM in data set [1], in data set [2] and in data set [4] were more than 120 min, more than 360 min and 73 min, respectively. For the same compound, the half-maximal inhibitory concentration (IC50) in data set [3] is 0.93 µM; in data set [5] it was more than 10 µM.
With `CC(C)(c1ccc(OCc2coc(NS(C)(=O)=O)n2)cc1)c1cc(Cl)c(OCCCl)c(Cl)c1` [Compound A38, N-(4-((4-(2-(3,5-dichloro-4-(2-chloroethoxy)phenyl)propan-2-yl)phenoxy)methyl)oxazol-2-yl)methanesulfonamide], the values for the half-life at 1 μM in data set [1], in data set [2] and in data set [4] were more than 120 min, more than 360 min and more than 120 min, respectively. In addition, the figures for the IC50 in data set [3] and in data set [5] were 5.07 µM and more than 10 µM, respectively.
Regarding `CC(C)(c1ccc(OCc2ccnc(NS(C)(=O)=O)n2)cc1)c1cc(Cl)c(OCCCl)c(Cl)c1` [Compound A74, N-(4-((4-(2-(3,5-dichloro-4-(2-chloroethoxy)phenyl)propan-2-yl)phenoxy)methyl)pyrimidin-2-yl)methanesulfonamide], the half-life at 1 μM in data set [1] is more than 120 min; in data set [2] it was more than 360 min; in data set [4] it was more than 120 min. Further, the IC50 is 5.41 µM in data set [3] and more than 10 µM in data set [5].
Take `CC(C)(c1ccc(OCc2ncc(S(C)(=O)=O)s2)cc1)c1cc(Cl)c(OCCCl)c(C#N)c1` [Compound A93, 3-chloro-2-(2-chloroethoxy)-5-(2-(4-((5-(methylsulfonyl)thiazol-2-yl)methoxy)phenyl)propan-2-yl)benzonitrile]: the half-life at 1 μM in data set [1] was more than 120 min; in data set [2], more than 360 min; in data set [4], 101 min. Moreover, the IC50 in data set [3] is 5.04 µM; in data set [5], more than 10 µM.
The matching figures for `CC(C)(c1ccc(OCc2ccnc(NS(C)(=O)=O)n2)cc1)c1cc(Cl)c(OCCCl)c(C#N)c1` [Compound A109, N-(4-((4-(2-(3-chloro-4-(2-chloroethoxy)-5-cyanophenyl)propan-2-yl)phenoxy)methyl)pyrimidin-2-yl)methanesulfonamide]: more than 120 min, more than 360 min, more than 120 min, 5.61 µM and more than 10 µM.
With `CC(C)(c1ccc(OC[C@H](O)CNS(C)(=O)=O)cc1)c1cc(Cl)c(OC[C@H](O)CCl)c(Cl)c1` [X, reference compound], the half-life at 1 μM in data set [2] is more than 360 min. For the same compound, the results for the IC50 in data set [3] and in data set [5] were 4.96 µM and 5.82 µM, respectively.
